One assay concerns S. cerevisiae R560-1C. Kind of assay: secondary screen, zone size on agar. The conditions noted are these: 20 ng FK506, 10 mcg CsA, 10 mcg L733,560, 20 mcg aculeacin, 20 mcg papulacandin. Type of assay: cell-based, Saccharomyces cerevisiae. How it is done:
(§1) For positively identifying glucan synthase inhibitors, screening with strain R560-1C and its parent W303-1A was instituted in a manner identical to that described for calcineurin inhibitors. Complete loss of a zone, or marked reduction in size, on R560-1C versus W303-1A indicates a glucan synthase inhibitor. No zones are seen with calcineurin inhibitors using this pair of strains.
(§2) Each strain is grown at 28°-30° C. in YPAD/10 mM CaCl2 medium with shaking at 220 rpm (to mid or late log phase). The cultures are diluted 1:10 with water, and the OD values of the dilutions are measured at 600 nm (against a blank of YPAD/10 mM CaCl2 similarly diluted 1:10 in water). The OD value is multiplied by 10 to estimate the OD of the culture. Portions (100 ml) of YPAD/10 mM CaCl2 medium containing 1.5% agar, equilibrated at 45° C. in a water bath, are seeded with culture such that the final cell density in the agar would have an OD value of 0.015 (i.e., 3×10^6 cfu/ml; a sample calculation is provided below). The seeded agar is poured into 500 cm^2 Nunc plates. Once the agar plates have solidified, 10 mcL aliquots of samples containing test compounds, such as fermentation extracts, are dissolved in water, 100% methanol or ethanol, or up to 50% DMSO and are placed on each member of the two-plate set in 11 by 8 arrays.
(§3) The plates are incubated for 48 h at 28°-30° C. Diameters of the zones are read to the outermost edge and recorded in mm. The clarity of the zone is reported as clear (no designation), hazy (h), or very hazy (vh). Very hazy zones are best seen by viewing the plate under an elevated light placed between the assay dish and a dark wall.

A further assay deals with S. cerevisiae W303-1A. Kind of assay: secondary screen, zone size on agar. To be noted: 20 ng FK506, 10 mcg CsA, 10 mcg L733,560, 20 mcg aculeacin, 20 mcg papulacandin. Type of assay: cell-based, Saccharomyces cerevisiae. On the procedure:
as §1, §2, §3

For assay [1], the system named is S. cerevisiae MY2144 (fks 1-3). The assay can be described thus: MIC, growth inhibition. To be noted: MY2144 (fks 1-3). The assay is classed as cell-based, Saccharomyces cerevisiae. On the procedure: (§4) Liquid broth microdilution assay
(§5) To quantitate the sensitivity of a particular strain of S. cerevisiae to a compound such as FK506, L-733,560, or nikkomycin Z, the following procedure was followed:
(§6) Dissolve drug of interest at 4× the desired initial concentration. For L-733,560, a 64 mcg/ml solution in sterile SD is prepared. Aliquot 75 mcL of the drug suspension into column 3. Using a multichannel pipettor, transfer 75 mcL from column 3 into column 4, pipet up and down three times to mix, and then transfer 75 mcL from column 4 into column 5. Repeat the serial dilution until column 12 is reached; after mixing, discard 75 mcL to waste.
(§7) Inoculate each strain in a given row by adding 75 mcL of the inoculum into columns 2 to 12. […] Column 2 serves as the no-drug or 100% growth control. The plate is then incubated overnight at 30° C. without shaking.
(§8) After approximately 24 hours of incubation, gently agitate the plate to resuspend the cells and read the absorbance at 600 nm wavelength. The % control growth for any given well can be calculated by dividing the absorbance value for that well by the value from column 2 in the same row. If this is done for each column, the data can be plotted as "Percent control growth" vs. "Drug concentration". The resulting dose-response curve can be used to compare the drug sensitivities of various strains.
(§9) The data in the following table are the minimum concentration of the various drugs required to inhibit the growth of each the mutants and their parent X2180-1A.

The test system of another assay is S. cerevisiae MY2145. Kind of assay: MIC, growth inhibition. Type of assay: cell-based, Saccharomyces cerevisiae. The conditions noted are these: MY2145. How it is done: as §4, §5, §6, §7, §8, §9
Another assay deals with S. cerevisiae X2180-1A. Kind of assay: MIC, growth inhibition. Type of assay: cell-based, Saccharomyces cerevisiae. To be noted: minimum concentration required to inhibit growth. On the procedure: as §4, §5, §6, §7, §8, §9
In assay [2] the test system is 1,3-beta-D glucan synthase from MY2145 (fks 1-4). Kind of assay: 1,3-beta-D glucan synthase assay, membrane preparation. Type of assay: biochemical, Saccharomyces cerevisiae. The conditions noted are these: membranes of MY2145 (fks 1-4). How it is done: (§10) Cell free extracts were prepared from mutant and wild type cells grown to logarithmic phase as previously described (Kang and Cabib, PNAS, 83:5808-5812, 1986). After homogenization with glass beads, the unbroken cells and debris were removed by a low speed centrifugation (1,000×gfor 5 min). The supernatant fluids were centrifuged at 100,000×g for 60 min and the pellets were washed with 2.5 ml (per gram of wet cells) of buffer containing 0.05M potassium phosphate (pH 7.5), 0.5 mM DTT, and 1.0 mM PMSF. The washed pellet was resuspended in the same buffer containing 5% glycerol. This served as the microsomal membranes source containing both chitin and glucan synthase enzymatic activities. The standard 1,3-beta-D glucan synthase reaction was initiated by mixing 35 mcg protein in cocktail I, which included TEK buffer (125 mM Tris chloride, pH 7.5, 31 mM KF, and 1 mM EDTA), 25% PBS, pH 7.0, 3.31 mcM GTP-gamma-S, and 0.25% BSA in a total volume of 69 mcL, with cocktail II, which included 4 units alpha-amylase, 25 mcg UDP-glucose, and 1 microCi UDP-^3 H-glucose, in a total volume of 11 mcL. Following 150 minutes of incubation at 30° C., the incorporation of UDP-^[…] into glucan was measured after precipitation with trichloroacetic acid.
(§11) Crude enzyme preparations associated with cell membranes were tested for glucan and chitin synthesis activities. […]

Assay [3] has as its system 1,3-beta-D glucan synthase from MY2144 (fks 1-3). The assay is described as above. Type of assay: biochemical, Saccharomyces cerevisiae. To be noted: membranes of MY2144 (fks 1-3). How it is done: as §10, §11

For dihydropapulacandin [L-687,781], the entries for the “Secondary Screen Zone size (mm)” value in the assay on S. cerevisiae R560-1C and with S. cerevisiae W303-1A were 14-16 mm and 15-18 mm, respectively. The figures for the MIC (in assay [1]; against S. cerevisiae MY2145; with S. cerevisiae X2180-1A) were 15 µg/mL, 5.5 µg/mL and 5.5 µg/mL, respectively. Further, the IC50 was 11.5 µg/mL in assay [2] and 11.1 µg/mL in assay [3].

The MIC is the least concentration at which growth counts as inhibited. Low values mean greater potency, high ones weaker potency. By IC50 is commonly meant the midpoint of a concentration-inhibition curve. A high value points to weaker potency.

The record behind these values is patent US5821353A, “DNA encoding 1,3 beta-D glucan synthase subunits” (Merck & Co., Inc., priority 1996, dated 1998).
